Target: T1, hDGAT1 (Homo sapiens, UniProt O75907)
T1 sequence (O75907 1-488): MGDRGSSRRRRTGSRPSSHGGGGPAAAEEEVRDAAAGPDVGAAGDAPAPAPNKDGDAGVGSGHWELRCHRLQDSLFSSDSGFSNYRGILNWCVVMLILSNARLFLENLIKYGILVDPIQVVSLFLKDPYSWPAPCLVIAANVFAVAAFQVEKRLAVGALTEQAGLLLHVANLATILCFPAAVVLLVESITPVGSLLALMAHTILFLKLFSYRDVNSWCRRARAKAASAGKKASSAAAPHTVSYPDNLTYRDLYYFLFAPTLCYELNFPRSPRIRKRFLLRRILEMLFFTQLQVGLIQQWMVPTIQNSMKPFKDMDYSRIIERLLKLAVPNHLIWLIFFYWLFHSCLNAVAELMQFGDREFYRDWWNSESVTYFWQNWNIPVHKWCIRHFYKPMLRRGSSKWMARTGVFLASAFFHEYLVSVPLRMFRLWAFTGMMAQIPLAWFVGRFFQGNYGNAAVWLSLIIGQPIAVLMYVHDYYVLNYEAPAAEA
Experiment: In-vitro DGAT1 assay (14C oleoyl CoA, hDGAT1 microsomes from Sf9 cells)
Settings: at 1 μM

In the case of `O=C(Nc1ccc(-c2ccc3c(c2)C(=O)N(C2(C(=O)O)CCC2)C3)cc1)c1ccc(-c2ccccc2)cc1` [Example 576, 1-(6-(4-([1,1′-Biphenyl]-4-ylcarboxamido)phenyl)-1-oxoisoindolin-2-yl)cyclo butanecarboxylic acid], the “% Inhibition of hDGAT1” value is reported as “++ (>50% Inhibition)”.
With `CC(C)[C@@H](C(=O)O)N1Cc2ccc(-c3ccc(NC(=O)C4C5CC6CC(C5)CC4C6)cc3)cc2C1=O` (stereo partly drawn) [Example 190, (S)-2-(6-(4-(Adamantyl-2-carboxamido)phenyl)-1-oxoisoindolin-2-yl)-3-methylbutanoic acid] the “% Inhibition of hDGAT1” value was “++ (>50% Inhibition)”.
With `CC(C)[C@@H](C(=O)O)N1Cc2ccc(-c3cnc(NC(=O)c4ccc(-c5ccccc5)cc4)cn3)cc2C1=O` [Example 507, (S)-2-(6-(5-Biphenyl-4-ylcarboxamidopyrazin-2-yl)-1-oxoisoindolin-2-yl)-3-methylbutanoic acid] the “% Inhibition of hDGAT1” value was “++ (>50% Inhibition)”.
With `CC(C)[C@@H](C(=O)O)N1Cc2ccc(-c3ccc(NC(=O)c4ccc(-c5ccccc5)cc4)cc3F)cc2C1=O` [Example 602, (S)-2-(6-(4-([1,1′-Biphenyl]-4-ylcarboxamido)-2-fluorophenyl)-1-oxoisoindolin-2-yl)-3-methylbutanoic acid] the “% Inhibition of hDGAT1” value was “++ (>50% Inhibition)”.

Same assay, conditions: read-out: % Inhibition of hDGAT1

`CC(C)[C@@H](C(=O)O)N1Cc2ccc(-c3ccc(NC(=S)Nc4cccc(C(F)(F)F)c4)cc3)cc2C1=O` [Example 76, (S)-3-Methyl-2-(1-oxo-6-(4-(3-(3-(trifluoromethyl)phenyl)thioureido)phenyl)isoindolin-2-yl)butanoic acid] and `CC(C)[C@H](C(=O)O)N1Cc2ccc(-c3ccc(NC(=O)Nc4cccc(C(F)(F)F)c4)cc3)cc2C1=O` [Example 331, (R)-3-Methyl-2-(1-oxo-6-(4-(3-(3-(trifluoromethyl)phenyl)ureido)phenyl)isoindolin-2-yl)butanoic acid] cannot be ordered by inhibition at 1 µM: greater than 50% for the first, greater than 50% for the second.

Compared with `C[C@@H](C(=O)O)N1Cc2cc(-c3ccc(NC(=O)Nc4cccc(C(F)(F)F)c4)cc3)ccc2C1=O` [Example 367, (S)-2-(1-Oxo-5-(4-(3-(3-(trifluoromethyl)phenyl)ureido)phenyl)isoindolin-2-yl)propanoic acid], `O=C(O)CCCN1Cc2cc(-c3ccc(NC(=O)Nc4cccc(C(F)(F)F)c4)cc3)ccc2C1=O` [Example 376, 4-(1-Oxo-5-(4-(3-(3-(trifluoromethyl)phenyl)ureido)phenyl)isoindolin-2-yl)butanoic acid] is lower in inhibition at 1 µM: greater than 50% for the first, 10 to 50% for the second.

`CC(C)[C@@H](C(=O)O)N1Cc2ccc(-c3ccc(NC(=O)c4ccc5ccccc5c4)c(F)c3)cc2C1=O` [Example 450, (S)-2-(6-(4-(2-Naphthamido)-3-fluorophenyl)-1-oxoisoindolin-2-yl)-3-methyl butanoic acid] and `Cc1ccc(F)c(C(=O)Nc2ccc(-c3ccc4c(c3)C(=O)N([C@H](C(=O)O)C(C)C)C4)cc2)c1F` [Example 166, (S)-2-(6-(4-(2,6-Difluoro-3-methylbenzamido)phenyl)-1-oxoisoindolin-2-yl)-3-methylbutanoic acid] cannot be ordered by inhibition at 1 µM: greater than 50% for the first, greater than 50% for the second.

`O=C(Nc1ccc(-c2ccc3c(c2)C(=O)N(C2(C(=O)O)CCCC2)C3)cc1)c1ccc(OC(F)(F)F)cc1` [Example 535, 1-(1-Oxo-6-(4-(4-(trifluoromethoxy)benzamido)phenyl)isoindolin-2-yl)cyclopentane carboxylic acid] and `CC(C)[C@@H](C(=O)O)N1Cc2ccc(-c3ccc(NC(=O)c4ccc(OC(F)(F)F)cc4)cc3)cc2C1=O` [Example 158, (S)-3-Methyl-2-(1-oxo-6-(4-(4-(trifluoromethoxy)benzamido)phenyl)isoindolin-2-yl)butanoic acid] cannot be ordered by inhibition at 1 µM: greater than 50% for the first, greater than 50% for the second.

First: Cc1ccccc1NC(=S)Nc1ccc(-c2ccc3c(c2)C(=O)N([C@H](C(=O)O)C(C)C)C3)cc1 [Example 72, (S)-3-Methyl-2-(1-oxo-6-(4-(3-o-tolylthioureido)phenyl)isoindolin-2-yl)butanoic acid]
Second: Cc1ccc(NC(=S)Nc2ccc(-c3ccc4c(c3)C(=O)N([C@H](C(=O)O)C(C)C)C4)cc2)cc1 [Example 54, (S)-3-Methyl-2-(1-oxo-6-(4-(3-p-tolylthioureido)phenyl)isoindolin-2-yl)butanoic acid]
The inhibition at 1 µM of the first is higher: greater than 50% for the first, 10 to 50% for the second.

First: Cc1ccc(NC(=O)Nc2ccc(-c3ccc4c(c3)C(=O)N([C@H](C(=O)O)C(C)C)C4)nc2)cc1C [Example 398, (S)-2-(6-(5-(3-(3,4-Dimethylphenyl)ureido)pyridin-2-yl)-1-oxoisoindolin-2-yl)-3-methylbutanoic acid]
Second: Cc1ccc(NC(=O)Nc2ccc(-c3ccc4c(c3)C(=O)N([C@H](C(=O)O)C(C)C)C4)c(C(F)(F)F)c2)cc1C [Example 422, (S)-2-(6-(4-(3-(3,4-Dimethylphenyl)ureido)-2-(trifluoromethyl)phenyl)-1-oxoisoindolin-2-yl)-3-methylbutanoic acid]
The inhibition at 1 µM of the first is higher: greater than 50% for the first, 10 to 50% for the second.

`CC(C)[C@@H](C(=O)O)N1Cc2ccc(-c3ccc(NS(=O)(=O)c4ccc(F)c(F)c4)cc3)cc2C1=O` [Example 82, (S)-2-(6-(4-(3,4-Difluorophenylsulfonamido)phenyl)-1-oxoisoindolin-2-yl)-3-methylbutanoic acid] and `COc1ccc(S(=O)(=O)Nc2ccc(-c3ccc4c(c3)CN([C@H](C(=O)O)C(C)C)C4=O)cc2)cc1OC` [Example 293, (S)-2-(5-(4-(3,4-Dimethoxyphenylsulfonamido)phenyl)-1-oxoisoindolin-2-yl)-3-methylbutanoic acid] fall in the same range of inhibition at 1 µM: 10 to 50% for the first, 10 to 50% for the second.

First: CC(C)[C@@H](C(=O)O)N1Cc2ccc(-c3ccc(NC(=O)c4ccc(C(C)(C)C)cc4)cn3)cc2C1=O [Example 404, (S)-2-(6-(5-(4-tert-Butylbenzamido)pyridin-2-yl)-1-oxoisoindolin-2-yl)-3-methyl butanoic acid]
Second: CC(C)[C@@H](C(=O)O)N1Cc2ccc(-c3cnc(NC(=O)c4ccc(C(C)(C)C)cc4)cn3)cc2C1=O [Example 505, (S)-2-(6-(5-(4-tert-Butylbenzamido)pyrazin-2-yl)-1-oxoisoindolin-2-yl)-3-methylbutanoic acid]
The inhibition at 1 µM of the first is higher: greater than 50% for the first, 10 to 50% for the second.

`CC(C)[C@@H](C(=O)O)N1Cc2ccc(-c3ccc(NC(=O)Nc4cc(F)cc(F)c4)cc3)cc2C1=O` [Example 30, (S)-2-(6-(4-(3-(3,5-Difluorophenyl)ureido)phenyl)-1-oxoisoindolin-2-yl)-3-methylbutanoic acid] and `COc1ccc(NC(=O)Nc2ccc(-c3ccc4c(c3)C(=O)N([C@H](C(=O)O)C(C)C)C4)cc2)cc1` [Example 28, (S)-2-(6-(4-(3-(4-Methoxyphenyl)ureido)phenyl)-1-oxoisoindolin-2-yl)-3-methylbutanoic acid] fall in the same range of inhibition at 1 µM: 10 to 50% for the first, 10 to 50% for the second.

`CCCCOc1ccc(C(=O)Nc2cnc(-c3ccc4c(c3)C(=O)N([C@H](C(=O)O)C(C)C)C4)cn2)cc1` [Example 509, (S)-2-(6-(5-(4-Butoxybenzamido)pyrazin-2-yl)-1-oxoisoindolin-2-yl)-3-methylbutanoic acid] and `CC(C)[C@@H](C(=O)O)N1Cc2ccc(-c3ccc(NC(=O)c4ccc(-c5nccs5)cc4)cc3)cc2C1=O` [Example 647, (S)-3-Methyl-2-(1-oxo-6-(4-(4-(thiazol-2-yl)benzamido)phenyl)isoindolin-2-yl)butanoic acid] cannot be ordered by inhibition at 1 µM: greater than 50% for the first, greater than 50% for the second.

First: COc1ccc(NC(=S)Nc2ccc(-c3ccc4c(c3)CN([C@H](C(=O)O)C(C)C)C4=O)cc2)cc1 [Example 261, (S)-2-(5-(4-(3-(4-Methoxyphenyl)thioureido)phenyl)-1-oxoisoindolin-2-yl)-3-methylbutanoic acid]
Second: COc1ccc(NC(=S)Nc2ccc(-c3ccc4c(c3)C(=O)N([C@H](C(=O)O)C(C)C)C4)cc2)cc1 [Example 58, (S)-2-(6-(4-(3-(4-Methoxyphenyl)thioureido)phenyl)-1-oxoisoindolin-2-yl)-3-methylbutanoic acid]
The inhibition at 1 µM of the first is lower: 10 to 50% for the first, greater than 50% for the second.

`CC(C)[C@@H](C(=O)O)N1Cc2ccc(-c3ccc(NC(=O)c4cc(-c5ccc(F)cc5)no4)cc3)cc2C1=O` [Example 616, (S)-2-(6-(4-(3-(4-Fluorophenyl)isoxazole-5-carboxamido)phenyl)-1-oxoisoindolin-2-yl)-3-methylbutanoic acid] and `CC(C)[C@@H](C(=O)O)N1Cc2ccc(-c3ccc(NC(=O)c4cc(-c5ccc(F)cc5)no4)cn3)cc2C1=O` [Example 639, (S)-2-(6-(5-(3-(4-Fluorophenyl)isoxazole-5-carboxamido)pyridin-2-yl)-1-oxoisoindolin-2-yl)-3-methylbutanoic acid] cannot be ordered by inhibition at 1 µM: greater than 50% for the first, greater than 50% for the second.

First: CC(C)[C@@H](C(=O)O)N1Cc2cc(-c3ccc(NC(=O)Nc4ccc(C(F)(F)F)cc4)cc3)ccc2C1=O [Example 245, (S)-3-Methyl-2-(1-oxo-5-(4-(3-(4-(trifluoromethyl)phenyl)ureido)phenyl)isoindolin-2-yl)butanoic acid]
Second: CC(C)(C(=O)O)N1Cc2ccc(-c3ccc(NC(=O)Nc4cccc(C(F)(F)F)c4)cc3)cc2C1=O [Example 340, 2-Methyl-2-(1-oxo-6-(4-(3-(3-(trifluoromethyl)phenyl)ureido)phenyl)isoindolin-2-yl)propanoic acid]
The inhibition at 1 µM of the first is higher: greater than 50% for the first, 10 to 50% for the second.

In the case of `O=C(O)CN1Cc2ccc(-c3ccc(NC(=O)Nc4cccc(C(F)(F)F)c4)cc3)cc2C1=O` [Example 334, 2-(1-Oxo-6-(4-(3-(3-(trifluoromethyl)phenyl)ureido)phenyl)isoindolin-2-yl)acetic acid], the inhibition at 1 µM is reported as 10 to 50%.
